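Five concentrations, 48 hours, 96-well plates. TGI denotes the concentration required for complete inhibition of growth.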
Key:
Assay in all cases: DTP human tumour cell line panel, 48 h
[1] = test system: CCRF-CEM leukemia
[2] = test system: UACC-62 melanoma
[3] = test system: HCC-2998 colon
[4] = test system: SNB-19 CNS
[5] = test system: SF-268 CNS
[6] = test system: HCT-116 colon
[7] = test system: LXFL 529 NSCLC
[8] = test system: SF-295 CNS
[9] = test system: A549 NSCLC
[10] = test system: SR leukemia
[11] = test system: DMS 273 small cell lung
[12] = test system: KM12 colon
[13] = test system: ACHN renal
[14] = test system: DLD-1 colon
[15] = test system: NCI-H226 lung
[16] = test system: RXF 393 renal
[17] = test system: SW-620 colon
[18] = test system: M19-MEL melanoma
[19] = test system: UACC-257 melanoma
[20] = test system: LOX IMVI melanoma
[21] = test system: CAKI-1 renal
[22] = test system: MALME-3M melanoma
[23] = test system: HOP-18 NSCLC
[24] = test system: NCI-H23 lung
[25] = test system: SNB-75 CNS
[26] = test system: RPMI-8226 leukemia
[27] = test system: HOP-62 NSCLC
[28] = test system: TK-10 renal
[29] = test system: EKVX NSCLC
[30] = test system: COLO 205 colon
[31] = test system: SK-MEL-28 melanoma
[32] = test system: HT29 colon
[33] = test system: SK-MEL-5 melanoma
[34] = test system: SN12C renal
[35] = test system: OVCAR-3 ovarian
[36] = test system: HL-60(TB) leukemia
[37] = test system: SK-OV-3 ovarian
[38] = test system: SK-MEL-2 melanoma
[39] = test system: XF 498 CNS
[40] = test system: M14 melanoma
[41] = test system: NCI-H460 lung
[42] = test system: HOP-92 NSCLC
[43] = test system: 786-0 renal
[44] = test system: SNB-78 CNS
[45] = test system: RXF-631 renal
[46] = test system: OVCAR-8 ovarian
[47] = test system: NCI-H522 lung
[48] = test system: IGROV1 ovarian
[49] = test system: OVCAR-5 ovarian
[50] = test system: KM20L2 colon
[51] = test system: U251 CNS
[52] = test system: K-562 leukemia
[53] = test system: MOLT-4 leukemia
[54] = test system: DMS 114 small cell lung
[55] = test system: OVCAR-4 ovarian
[56] = test system: SF-539 CNS
[57] = test system: UO-31 renal
[58] = test system: A498 renal
[59] = test system: HCT-15 colon

Measured: TGI

CN(C)c1ncnc2c1Cc1ccccc1C(=O)N2C
not listed: [58] | [59]
> 100 µM: all other assays above

CSc1nc(NC2OCC(OC(C)=O)C(OC(C)=O)C2OC(C)=O)c(N=C(C)C(C)=O)c(=O)n1C (centres undefined)
not listed: [5] | [10] | [31] | [47]
> 100 µM: all other assays above

COc1cccc(NC(=O)C(C)(C)C)c1C=O
77.3 µM: [57]
85.4 µM: [39]
not listed: [11] | [16]
> 100 µM: all other assays above

Reference: PubChem BioAssay (NCI)
